From patent US20220033623A1, “CONJUGATES OF HYALURONIC ACID AND AMINOBISPHOSPHONATES AND THE THERAPEUTIC USE THEREOF” (FIDIA FARMACEUTICI S.P.A., priority 2018, published 2022) come the findings set out here.

Series [1] in a line: Rheological properties: viscoelastic moduli (frequency sweep) after adding CaCl2. In kind it is physicochemical. The conditions noted are these: 20 mg/mL in 0.1 M TRIS pH 7, alendronate 2.4 mg/mL, CaCl2 2 mg/mL, 20° C, 0.1-100 rad/s; FIG. 2.
The subject of series [2] is Saos-2 osteoblasts. The conditions noted are these: for cell viability: 3 days of incubation, % of that of the control, FIG. 4A.
Experimental: The cells were then seeded at the concentration of 1×10^4 cells/well in 96-well Multiwell plates (Sarstedt, cat. no. 83,3924, Germany) and divided into three groups:
(§1) 1) a control group, wherein the cells were neither treated nor stimulated;
(§2) Each sample was tested in four replications.
Series [3] deals with primary bovine chondrocytes. Particulars: for cytotoxic effect: 7 days.
Experimental: The ability of the conjugate to release alendronate in a controlled way and also to have an effect on cartilage tissue was evaluated by in vitro testing on primary bovine chondrocytes.
as §1, §2

Read-outs that look alike come from different tables or passages of the source. Bounds are passed on as bounds.

One may read the cell viability as a read-out of living cells in per cent, often relative to untreated cells.

For the compound `NCCCC(O)(P(=O)(O)O)P(=O)(O)O` [alendronate], the “viscoelastic moduli G′ (elastic) and G″ (viscous), comparison in words” value in series [1] was “no effect on rheological behaviour”. In addition, the cell viability in series [2] (Saos-2, 50 μM) is on record as less than 70%; in series [2] (Saos-2, 100 μM), less than 70%. In series [2] (Saos-2, 3 versus 7 days), the “cytotoxicity as a function of incubation period” value is listed as “increases significantly in proportion to the incubation period”. Besides, the “onset of the effect on the cells” value in series [3] is recorded as “acts on the primary bovine chondrocytes after only 72 hours of incubation”. Moreover, the cytotoxic effect entry in series [3] (50 μM) and in series [3] (100 μM) was “maximum cytotoxic effect” in each case.
